# pEC50: −log10 of the molar value.
# Test system: NaCT-CHO (CHO cells stably expressing human NaCT)
# Assay: Assay of the citric acid cycle activation ([1,5-14C]-citric acid, diffusion of [14C]-CO2)
# Format: cell-based
# Settings: 1 hour incubation at 37° C. with [1,5-14C]-citric acid
# Excerpt: Assay of the Citric Acid Cycle Activation
# (1) Construction of the Human NaCT Expression Vector pME-NaCT
# The human NaCT (also called SLC13A5 or NAC2; GenBank accession No. NM_177550) cDNA was inserted into the EcoRI-NotI site of the mammalian expression vector pME18S (GenBank accession No. AB009864) and purified by Qiagen Plasmid Maxi Kit (Qiagen).
# (2) Establishment of NaCT Stably Expressed CHO Cells
# The pME-NaCT vector and the pcDNA™3.1 vector containing the neomycin resistance gene (Life Technologies) were co-transfected into CHO-K1 cells (ATCC) by Lipofectaimine 2000 reagent (Life Technologies). The next day the cells were subcultured in Nutrient Mixture F-12 Ham (Sigma-Aldrich) with 10% FBS (Biological Industries), and Geneticin (Life Technologies) was added (final concentration 350 μg/mL) in the following day. CHO cell clones stably expressing NaCT were given by neomycin resistant cell screening and limiting dilution method. Established cell lines (named NaCT-CHO) were also maintained in culture medium (Nutrient Mixture F-12 Ham) with 10% FBS and 350 μg/mL Geneticin. For control cells (named pME-CHO) preparation, the naive pME18S were also transfected instead of pME-NaCT into CHO-K1 cells.
# (3) Assay of the Citric Acid Cycle Activation
# NaCT-CHO and pME-CHO were plated at 20,000 cells/well into white CulturPlate™-96 (PerkinElmer) two days before the assay. Prior to assay incubation, the cultured plates were washed twice with washing buffer, 10 mM HEPES-Tris(pH7.4) containing 140 mM choline chloride, 2 mM KCl, 1 mM CaCl2, 1 mM MgCl2. The compounds to be tested were dissolved and diluted in DMSO (Wako Pure Chemical industries) to 1,000 times of a final concentration, and further diluted to two times as high as the final concentration in assay buffer, 10 mM HEPES-Tris(pH7.4) containing 140 mM NaCl, 2 mM KCl, 1 mM CaCl2, 1 mM MgCl2. The range of final concentrations was properly determined based on the test compounds activity. Each 25 μL compound solution was added to well and subsequently 25 μL radio-labeled substrate solution containing 0.4 mM (0.4 MBq/mL) [1,5-^14C]-citric acid (PerkinElmer) in the assay buffer was added. After 1 hour incubation at 37° C., the reaction mixture was discarded and washed three times with pre-chilled washing buffer and then 0.1 mL MicroScint 20 (PerkinElmer) was added to well. The plate was sealed with TopSeal-A (PerkinElmer) and the radioactivity was measured using a TopCount (PerkinElmer). Non-specific activity (NS cpm) and total radio activity (Total cpm) were determined by counting of pME-CHO plated wells and NaCT-CHO plated wells without compounds, respectively. Diffusion of [^14C]—CO2 was able to be estimated from residual radioactivity (R cpm) by an equation (Total−R)/(Total−NS)×100(%). The difference of Total and R was disappeared in the presence of 0.1 μM antimycin A. EC50 values were calculated by regression analysis using SAS Statistical Analysis System (SAS institute Japan Ltd. Release 9.1).
row,Compound,pEC50
1,"N#Cc1[nH]nnc1-c1cccc(CCOc2ccc(C(F)(F)F)cn2)c1 [Example 66, 5-{3-[2-(5-trifluoromethyl-pyridin-2-yloxy)-ethyl]-phenyl}-3H-[1,2,3]triazole-4-carbonitrile]",6.18
2,"CC(Cc1ccccc1)Oc1cc(-c2nn[nH]c2C#N)cc(C(F)(F)F)c1 (stereo not shown) [Example 67, 5-[3-(1-methyl-2-phenyl-ethoxy)-5-trifluoromethyl-phenyl]-3H-[1,2,3]triazole-4-carbonitrile]",6.31
3,"N#Cc1[nH]nnc1-c1ccc(-c2cccc(C(F)(F)F)c2)cc1 [Example 68, 5-(3′-trifluoromethyl-biphenyl-4-yl)-3H-[1,2,3]triazole-4-carbonitrile]",6.34
4,"N#Cc1[nH]nnc1-c1ccc(-c2cc(C(F)(F)F)ccn2)cc1 [Example 69, 5-[4-(4-trifluoromethyl-pyridin-2-yl)-phenyl]-3H-[1,2,3]triazole-4-carbonitrile]",6.28
5,"Cc1cc(-c2nn[nH]c2C#N)ccc1Cc1cccc(C(F)(F)F)c1 [Example 71, 5-[3-methyl-4-(3-trifluoromethyl-benzyl)-phenyl]-3H-[1,2,3]triazole-4-carbonitrile]",6.23
6,"N#Cc1[nH]nnc1-c1ccc(Oc2cccc(C(F)(F)F)c2)c(F)c1 [Example 72, 5-[3-fluoro-4-(3-trifluoromethyl-phenoxy)-phenyl]-3H-[1,2,3]triazole-4-carbonitrile]",6.52
7,"N#Cc1[nH]nnc1-c1ccc(/C=C/c2cccc(C(F)(F)F)c2)cc1F [Example 73, 5-{2-fluoro-4-[(E)-2-(3-trifluoromethyl-phenyl)-vinyl]-phenyl}-3H-[1,2,3]triazole-4-carbonitrile]",6.14
8,"N#Cc1[nH]nnc1-c1nc(-c2ccc(OC(F)(F)F)cc2)cs1 [Example 74, 5-[4-(4-trifluoromethoxy-phenyl)-thiazol-2-yl]-3H-[1,2,3]triazole-4-carbonitrile]",5.54
9,"N#Cc1[nH]nnc1-c1csc(-c2ccc(F)c(Cl)c2)n1 [Example 76, 5-[2-(3-chloro-4-fluoro-phenyl)-thiazol-4-yl]-3H-[1,2,3]triazole-4-carbonitrile]",6.23
10,"N#Cc1[nH]nnc1-c1csc(-c2ccc(OC(F)(F)F)cc2)n1 [Example 80, 5-[2-(4-trifluoromethoxy-phenyl)-thiazol-4-yl]-3H-[1,2,3]triazole-4-carbonitrile]",6.06
11,"N#Cc1[nH]nnc1-c1csc(/C=C/c2cccc(C(F)(F)F)c2)n1 [Example 81, 5-{2-[(E)-2-(3-trifluoromethyl-phenyl)-vinyl]-thiazol-4-yl}-3H-[1,2,3]triazole-4-carbonitrile]",6.00
12,"N#Cc1[nH]nnc1-c1csc(OCc2ccc(Cl)cc2)n1 [Example 82, 5-[2-(4-chloro-benzyloxy)-thiazol-4-yl]-3H-[1,2,3]triazole-4-carbonitrile]",6.12
13,"CN(c1ccc(Cl)cc1)c1nc(-c2nn[nH]c2C#N)cs1 [Example 83, 5-{2-[N-(4-chloro-phenyl)-N-methyl-amino]-thiazol-4-yl}-3H-[1,2,3]triazole-4-carbonitrile]",5.97
14,"CCN(c1cccc(C(F)(F)F)c1)c1nc(-c2nn[nH]c2C#N)cs1 [Example 84, 5-{2-[N-ethyl-N-(3-trifluoromethyl-phenyl)-amino]-thiazol-4-yl}-3H-[1,2,3]triazole-4-carbonitrile]",5.82
15,"N#Cc1[nH]nnc1-c1csc(Oc2cccc(C(F)(F)F)c2)n1 [Example 85, 5-[2-(3-trifluoromethyl-phenoxy)-thiazol-4-yl]-3H-[1,2,3]triazole-4-carbonitrile]",6.16
16,"N#Cc1[nH]nnc1-c1csc(Sc2ccc(Cl)cc2)n1 [Example 86, 5-[2-(4-chloro-phenylsulfanyl)-thiazol-4-yl]-3H-[1,2,3]triazole-4-carbonitrile]",6.17
17,"CCCCCCc1nc(-c2nn[nH]c2C#N)cs1 [Example 87, 5-(2-hexyl-thiazol-4-yl)-3H-[1,2,3]triazole-4-carbonitrile]",6.05

row,Compound,pEC50
1,"N#Cc1[nH]nnc1-c1csc(C23CC4CC(CC(C4)C2)C3)n1 [Example 88, 5-(2-(adamantan-1-yl)-thiazol-4-yl)-3H-[1,2,3]triazole-4-carbonitrile]",6.21
2,"Cc1sc(-c2ccc(Cl)cc2)nc1-c1nn[nH]c1C#N [Example 89, 5-[2-(4-chloro-phenyl)-5-methyl-thiazol-4-yl]-3H-[1,2,3]triazole-4-carbonitrile]",6.12
3,"Cc1sc(-c2cccc(C(F)(F)F)c2)nc1-c1nn[nH]c1C#N [Example 91, 5-[5-methyl-2-(3-trifluoromethyl-phenyl)-thiazol-4-yl]-3H-[1,2,3]triazole-4-carbonitrile]",6.15
4,"Cc1sc(-c2ccc(C(F)(F)F)cn2)nc1-c1nn[nH]c1C#N [Example 93, 5-[5-methyl-2-(5-trifluoromethyl-pyridin-2-yl)-thiazol-4-yl]-3H-[1,2,3]triazole-4-carbonitrile]",6.24
5,"Cc1sc(-c2cccc(C(F)(F)F)n2)nc1-c1nn[nH]c1C#N [Example 94, 5-[5-methyl-2-(6-trifluoromethyl-pyridin-2-yl)-thiazol-4-yl]-3H-[1,2,3]triazole-4-carbonitrile]",6.10
6,"Cc1sc(-c2ccc(Cl)cn2)nc1-c1nn[nH]c1C#N [Example 95, 5-[2-(5-chloro-pyridin-2-yl)-5-methyl-thiazol-4-yl]-3H-[1,2,3]triazole-4-carbonitrile]",6.13
7,"Cc1sc(Oc2ccc(OC(F)(F)F)cc2)nc1-c1nn[nH]c1C#N [Example 96, 5-[5-methyl-2-(4-trifluoromethoxy-phenoxy)-thiazol-4-yl]-3H-[1,2,3]triazole-4-carbonitrile]",6.17
8,"Cc1sc(Sc2cccc(C(F)(F)F)c2)nc1-c1nn[nH]c1C#N [Example 97, 5-[5-methyl-2-(3-trifluoromethyl-phenylsulfanyl)-thiazol-4-yl]-3H-[1,2,3]triazole-4-carbonitrile]",6.30
9,"CCc1sc(-c2cccc(C(F)(F)F)c2)nc1-c1nn[nH]c1C#N [Example 99, 5-[5-ethyl-2-(3-trifluoromethyl-phenyl)-thiazol-4-yl]-3H-[1,2,3]triazole-4-carbonitrile]",6.27
10,"CCc1sc(-c2ccc(C(F)(F)F)nc2)nc1-c1nn[nH]c1C#N [Example 101, 5-[5-ethyl-2-(6-trifluoromethyl-pyridin-3-yl)-thiazol-4-yl]-3H-[1,2,3]triazole-4-carbonitrile]",6.07
11,CCc1sc(Oc2ccc(Cl)cc2)nc1-c1nn[nH]c1C#N [Example 102],6.44
12,"CCCc1sc(-c2ccc(Cl)cc2)nc1-c1nn[nH]c1C#N [Example 103, 5-[2-(4-chloro-phenyl)-5-propyl-thiazol-4-yl]-3H-[1,2,3]triazole-4-carbonitrile]",6.64
13,"CCCc1sc(-c2cccc(C(F)(F)F)c2)nc1-c1nn[nH]c1C#N [Example 104, 5-[5-propyl-2-(3-trifluoromethyl-phenyl)-thiazol-4-yl]-3H-[1,2,3]triazole-4-carbonitrile]",6.15
14,"N#Cc1[nH]nnc1-c1nc(-c2ccc(Cl)cc2)sc1C1CC1 [Example 105, 5-[2-(4-chloro-phenyl)-5-cyclopropyl-thiazol-4-yl]-3H-[1,2,3]triazole-4-carbonitrile]",5.72
15,"CC(C)Cc1sc(-c2ccc(Cl)cc2)nc1-c1nn[nH]c1C#N [Example 106, 5-[2-(4-chloro-phenyl)-5-isobutyl-thiazol-4-yl]-3H-[1,2,3]triazole-4-carbonitrile]",6.08
16,"N#Cc1[nH]nnc1-c1nc(-c2ccc(Cl)cc2)sc1-c1ccc(C(F)(F)F)cc1 [Example 107, 5-[2-(4-chloro-phenyl)-5-(4-trifluoromethyl-phenyl)-thiazol-4-yl]-3H-[1,2,3]triazole-4-carbonitrile]",5.59
17,"N#Cc1[nH]nnc1-c1nc(Oc2ccc(OC(F)(F)F)cc2)sc1Cl [Example 109, 5-[5-chloro-2-(4-trifluoromethoxy-phenoxy)-thiazol-4-yl]-3H-[1,2,3]triazole-4-carbonitrile]",6.17

# Source: patent US10626095B2, “Cyanotriazole compounds” (OTSUKA PHARMACEUTICAL CO., LTD., priority 2013, dated 2020)
